Experimental data taken from the supplement of paper PMC10307832.

Tests used:
Experiment in all cases: relative viability (nuclei count vs DMSO), 5 days (fraction); higher = more cells survive
[1] = compound: CC[C@@H](C)CNCC(=O)N1CCC2=C([C@@H]1COC3=CC=CC(=C3)C)C=CS2 [RU-SKI 43] + CS(=O)(=O)CCNCc1ccc(-c2ccc3ncnc(Nc4ccc(OCc5cccc(F)c5)c(Cl)c4)c3c2)o1 [Lapatinib] (partner 2 µM)
How it was run: (§1)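 One day after seeding in 1536-well plates, lung cancer cell lines were dosed by pin tool. Dosing was either single-drug or a fixed anchor-drug dose plus five library-drug doses (not always all listed) in √10 steps. After 5 days, nuclei were stained in one fix-and-stain step and counted on 4× images, and relative viability is the nuclei count of treated wells over that of vehicle wells, given as the median of duplicate plates.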

[2] = compound: CC[C@@H](C)CNCC(=O)N1CCC2=C([C@@H]1COC3=CC=CC(=C3)C)C=CS2 [RU-SKI 43] + CS(=O)(=O)N1CCN(Cc2cc3nc(-c4cccc5[nH]ncc45)nc(N4CCOCC4)c3s2)CC1 [Pictilisib] (partner 1 µM)
How it was run: as §1

[3] = compound: Cn1cc(-c2cnc3ccc4ccc(CS(=O)(=O)NCc5ccccn5)cc4c(=O)c3c2)cn1 [MK-8033] + CS(=O)(=O)N1CCN(Cc2cc3nc(-c4cccc5[nH]ncc45)nc(N4CCOCC4)c3s2)CC1 [Pictilisib] (partner 1 µM)
How it was run: as §1

[4] = compound: Cn1cc(-c2cnc3ccc4ccc(CS(=O)(=O)NCc5ccccn5)cc4c(=O)c3c2)cn1 [MK-8033] + Nc1ncn([C@H]2C[C@H](O)[C@@H](CO)O2)c(=O)n1 [Decitabine] (partner 2 µM)
How it was run: as §1

Cell Line	relative viability ([1]; first compound 0.1 µM)	relative viability ([1]; first compound 0.3162 µM)	relative viability ([1]; first compound 1 µM)	relative viability ([1]; first compound 3.162 µM)	relative viability ([1]; first compound 10 µM)	relative viability ([2]; first compound 0.1 µM)	relative viability ([2]; first compound 0.3162 µM)	relative viability ([2]; first compound 1 µM)	relative viability ([2]; first compound 3.162 µM)	relative viability ([2]; first compound 10 µM)	relative viability ([3]; first compound 0.02 µM)	relative viability ([3]; first compound 0.06325 µM)	relative viability ([3]; first compound 0.2 µM)	relative viability ([3]; first compound 0.6325 µM)	relative viability ([3]; first compound 2 µM)	relative viability ([4]; first compound 0.02 µM)	relative viability ([4]; first compound 0.06325 µM)	relative viability ([4]; first compound 0.2 µM)	relative viability ([4]; first compound 0.6325 µM)	relative viability ([4]; first compound 2 µM)
NCI-H1651	0.846	0.964	0.98	0.974	0.764	0.606	0.783	0.76	0.621	0.728	0.602	0.528	0.433	0.631	0.507	0.706	0.606	0.653	0.694	0.649
NCI-H1666	0.58	0.721	0.695	0.615	0.52	0.407	0.481	0.377	0.331	0.2	0.365	0.31	0.459	0.422	0.481	0.792	0.746	0.728	0.766	0.736
NCI-H1734	1.08	1.08	1.1	1.08	0.998	0.467	0.585	0.459	0.454	0.431	0.48	0.37	0.466	0.469	0.45	0.562	0.463	0.478	0.504	0.481
NCI-H1755	1.03	1.4	1.08	0.995	1.01	0.384	0.524	0.532	0.48	0.367	0.413	0.399	0.368	0.405	0.481	0.743	0.673	0.769	0.64	0.691
NCI-H1792	0.937	1.14	1.42	0.88	0.973	0.284	0.351	0.277	0.281	0.304	0.256	0.188	0.346	0.269	0.212	0.527	0.508	0.47	0.522	0.537
NCI-H1793	0.69	0.644	0.594	0.673	0.697	0.396	0.411	0.479	0.318	0.31	0.32		0.286	0.307	0.258	0.486		0.51	0.379	0.543
NCI-H1915	1.02	1.22	1.13	1.03	0.993	1.02	0.954	1.03	0.961	0.927	0.969	0.785	0.914	1	0.861	0.255	0.239	0.255	0.266	0.264
NCI-H1944	0.825	0.793	0.864	0.86	0.817	0.336	0.317	0.372	0.353	0.351	0.35		0.347	0.346	0.34	0.42	0.388	0.44	0.456	0.458
